Measured values published in the Biogen ADME set (Fang et al. 2023).
In brackets after ≈: the same amount, converted by molar mass.

Details: for aqueous solubility: pH 6.8

Row | Compound | intrinsic clearance, human liver microsomes [mL/min/kg] | intrinsic clearance, rat liver microsomes [mL/min/kg] | MDR1-MDCK efflux ratio | aqueous solubility [µg/mL] | fraction unbound, human plasma
1 | Cc1cc(C)c(S(=O)(=O)Nc2ccccc2)c(C)c1 | 137 | 4160 |  |  | 
2 | CC(=O)NC1(C(=O)N2CCCN(c3cccnn3)CC2)CCCCC1 | 7.73 | 20.9 | 21.8 | 48.3 (≈ 140 µM) | 
3 | CCNC(=O)C1CN(c2cccc(C#N)n2)C1 | ≤ 4.74 | ≤ 10.7 | 2.07 | 42.9 (≈ 186 µM) | 
4 | CCC(CC)NC(=O)c1cc(C)nc2onc(C)c12 | ≤ 4.74 | ≤ 10.7 | 1.34 | 45.5 (≈ 174 µM) | 
5 | CC(C)c1ccc(CN2CCN(C(=O)C3CCN(C(=O)C4CC4)CC3)CC2)cc1 | 32.1 | 379 | 2.65 |  | 
6 | Cc1ccc(/C(N)=N/OC(=O)c2ccc3c(c2)OCCO3)cc1 |  |  |  | 0.33 (≈ 1.06 µM) | 
7 | Cc1cc(-c2nccs2)nc(CC2CCNCC2)n1 | ≤ 4.74 | 38.8 | 20.1 | 36.5 (≈ 133 µM) | 
8 | C=CC(=O)Nc1cccc(Nc2nc(Nc3ccc(Oc4ccnc(C(=O)NC)c4)cc3)ncc2F)c1 | 66.5 | 322 | 13.2 |  | 0.00395
9 | CC1(C)CC(=O)c2c(C(F)(F)F)nn(-c3ccc(C(N)=O)c(N[C@H]4CC[C@H](OC(=O)CN)CC4)c3)c2C1 | 204 | 469 |  |  | 
10 | Cc1nn(C)c2ncc(CNc3ccon3)cc12 | ≤ 4.74 | 14.2 | 0.858 |  | 
11 | Cc1cc(Oc2ncccn2)ccc1NC(=O)c1c(C)oc(C)c1C | ≤ 4.74 | 122 | 0.8 | 55 (≈ 163 µM) | 
12 | COc1cccc(C(=O)N(C)CC(F)(F)F)c1OCCCN | ≤ 4.74 | 82.1 | 30.1 |  | 
13 | CCN1CCC(Nc2ncnc3c2cnn3C)CC1 | 63.4 | 21.9 | 4.01 | 32.5 (≈ 125 µM) | 
14 | CCN(C(C)=O)c1ccc(C)cc1C(=O)O | ≤ 4.74 | ≤ 10.7 | 0.864 | 34.9 (≈ 158 µM) | 
15 | O=C(Cn1ccnc1)NCc1ccccc1F | ≤ 4.74 | ≤ 10.7 |  | 48.8 (≈ 209 µM) | 
16 | Cc1ccc(NC(=O)c2ccn(C(C)C)n2)cc1N1C(=O)CCC1=O | ≤ 4.74 | 19.2 |  |  | 
17 | COC(=O)N[C@H](C)CNc1nccc(-c2cn(C(C)C)nc2-c2cc(Cl)cc(NS(C)(=O)=O)c2F)n1 | 14.7 | 66.5 | 129 |  | 
18 | C#CCN1CCN(Cc2nc(O)cc(C(F)(F)F)n2)CC1 | ≤ 4.74 | ≤ 10.7 |  | 42.9 (≈ 143 µM) | 
19 | Cc1cccc(OC[C@@]2(O)CN(C[C@]3(O)CC[C@@H](C(C)(C)C)CC3)CC[C@@H]2O)c1 | 234 | 1790 | 1.33 |  | 
20 | CC(C)[C@H]1C(=O)N[C@H](CO)Cc2cc(NC(=O)/C=C/C=C/c3ccc(C(F)(F)F)cc3)ccc2N1C | 497 | 439 | 55.9 |  | 
21 | O=C(CSc1ccc(F)cc1)N1CCCC1 | 9.35 | 117 | 0.746 | 36.2 (≈ 151 µM) | 

The remaining lines, values ahead:

Row | intrinsic clearance, human liver microsomes [mL/min/kg] | intrinsic clearance, rat liver microsomes [mL/min/kg] | MDR1-MDCK efflux ratio | aqueous solubility [µg/mL] | fraction unbound, human plasma | Compound
22 | 511 | 1010 | 1.45 |  |  | Cc1cncc(CN2CCC(=C3c4ccc(Cl)cc4CCc4cccnc43)CC2)c1
23 | 53.3 | 373 |  |  |  | N#CCc1ccc(OCc2ccncc2)cc1
24 | ≤ 4.74 | 104 |  | 41.5 (≈ 110 µM) |  | CN1C(=O)[C@@H](NC(=O)c2nnc(Cc3ccccc3)[nH]2)COc2ccccc21
25 |  |  |  | 29.9 (≈ 61.6 µM) |  | Nc1nc(NCCNc2ncc(-c3ncc[nH]3)c(-c3ccc(Cl)cc3Cl)n2)ccc1[N+](=O)[O-]
26 | 87.5 | 492 | 0.989 | 10.3 (≈ 29.7 µM) |  | Cc1ccc(-c2nc(NCc3ccco3)ncc2-c2cc(C)no2)cn1
27 | 13.8 | 655 | 35.2 |  |  | COc1ccc2cc(C(=O)NCc3nnc4n3CCCCC4)ccc2c1
28 | 44.2 | 328 | 4.4 | 28.9 (≈ 94.5 µM) |  | Cc1cc(N(C)Cc2ccc(N)nc2)nc(-c2ccncc2)n1
29 | 35.9 | 105 | 0.248 | 4.17 (≈ 13.3 µM) |  | CCc1nnc(NC(=O)c2ccc3cc(OC)ccc3n2)s1
30 | 256 |  | 2.11 |  | 0.0119 | O=C(NCCc1ccccc1)c1ccc(NC(=O)N2CCCCc3ccccc32)cc1
31 | 256 | 1670 | 7.27 | 1.63 (≈ 4.07 µM) |  | O=C(Cn1nc2n(c1=O)-c1ccccc1C1=NCCN12)N1CCCc2ccccc21
32 | 22.1 | 196 | 0.992 | 5.3 (≈ 15.6 µM) |  | O=C(NCc1ccc(-n2cncn2)nc1)c1csc2c1CCCC2
33 |  |  |  | 14.1 (≈ 39.4 µM) |  | O=C(Cc1cccc2ccccc12)NCc1ccc(N2CCCC2=O)cc1
34 | 8.35 | 69.8 | 15.4 | 29.2 (≈ 70.9 µM) |  | CC(C)(O)C(=O)N1CCC(c2ccc3c(NCc4ccccc4F)n[nH]c3n2)CC1
35 | 61 | 658 |  | 42.6 (≈ 150 µM) |  | Fc1cccc(N[C@H]2CCCN[C@H]2Cc2ccccc2)c1
36 |  |  |  | 3.73 (≈ 10.8 µM) |  | Clc1ccccc1C(c1ccccc1)(c1ccccc1)n1ccnc1
37 | 13.5 | 29 | 0.607 | 59.1 (≈ 260 µM) |  | O=C(NCCc1ccccc1)c1cnccn1
38 |  |  | 0.204 | 0.93 (≈ 3.43 µM) |  | Cc1nnc(-c2ccccc2NCc2ccsc2)o1
39 | 224 | 1180 |  |  |  | COc1ccccc1-n1ncc2c(=O)[nH]c(SC(C)c3ccccc3)nc21 (stereo not given)
40 | 187 | 238 | 0.343 |  |  | N#Cc1ccc(CNc2cnc3ccccc3c2)o1
41 | 273 | 2410 | 1.92 | 50.6 (≈ 129 µM) |  | Cc1nn(C)cc1CNc1nc(-c2cnccn2)nc2sc3c(c12)CCCC3
42 | 9.16 | 108 | 75.6 | 29.5 (≈ 68.7 µM) |  | CCCCC1=NC2(CCCC2)C(=O)N1Cc1ccc(-c2ccccc2-c2nnn[nH]2)cc1
